Measured values from article PMC4774911, “Biochemical Screening of Five Protein Kinases from Plasmodium falciparum against 14,000 Cell-Active Compounds” (PLoS ONE, 2016).
Values joined by “and” are separate entries in the source; they are usually repeats but may differ in a detail not shown here. Identical values can stand only once.

How the values were obtained:
Assay in all cases: biochemical
Parameters in all cases: endogenous in cells; host or cells: K562 cell extract; species or system K562 (extract); replicate k of n = 2 (each experiment ID is one independent experiment; two experiment IDs per compound)
Conditions in all cases: read-out: KDapp
[1] = target: T1, ADCK1 (Homo sapiens, UniProt Q86TW2)
T1 sequence (Q86TW2 1-530): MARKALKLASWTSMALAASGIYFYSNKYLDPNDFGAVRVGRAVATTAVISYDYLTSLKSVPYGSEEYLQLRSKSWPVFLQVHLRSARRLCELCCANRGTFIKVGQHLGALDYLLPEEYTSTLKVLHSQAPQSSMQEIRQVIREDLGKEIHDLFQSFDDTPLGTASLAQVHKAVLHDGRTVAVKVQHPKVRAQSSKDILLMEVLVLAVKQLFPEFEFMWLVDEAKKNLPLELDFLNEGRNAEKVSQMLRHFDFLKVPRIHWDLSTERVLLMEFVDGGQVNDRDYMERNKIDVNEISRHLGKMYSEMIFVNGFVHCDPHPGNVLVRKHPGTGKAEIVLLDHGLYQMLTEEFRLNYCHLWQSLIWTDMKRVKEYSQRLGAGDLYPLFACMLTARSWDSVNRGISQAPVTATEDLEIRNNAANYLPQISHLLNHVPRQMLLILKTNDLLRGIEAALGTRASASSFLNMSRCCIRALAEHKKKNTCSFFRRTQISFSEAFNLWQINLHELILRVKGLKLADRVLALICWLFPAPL

[2] = target: CHEK2 (Homo sapiens, UniProt O96017)
[3] = target: LYN (Homo sapiens, UniProt P07948)
[4] = target: JAK1 (Homo sapiens, UniProt P23458)
[5] = target: MELK (Homo sapiens, UniProt Q14680)
[6] = target: CAMKK2 (Homo sapiens, UniProt Q96RR4)
[7] = target: CRKRS (Homo sapiens, UniProt Q9NYV4)
[8] = target: AURKB (Homo sapiens, UniProt Q96GD4)
[9] = target: WEE1 (Homo sapiens, UniProt P30291)
[10] = target: T2, ITK (Homo sapiens, UniProt Q08881)
T2 sequence (Q08881 1-620): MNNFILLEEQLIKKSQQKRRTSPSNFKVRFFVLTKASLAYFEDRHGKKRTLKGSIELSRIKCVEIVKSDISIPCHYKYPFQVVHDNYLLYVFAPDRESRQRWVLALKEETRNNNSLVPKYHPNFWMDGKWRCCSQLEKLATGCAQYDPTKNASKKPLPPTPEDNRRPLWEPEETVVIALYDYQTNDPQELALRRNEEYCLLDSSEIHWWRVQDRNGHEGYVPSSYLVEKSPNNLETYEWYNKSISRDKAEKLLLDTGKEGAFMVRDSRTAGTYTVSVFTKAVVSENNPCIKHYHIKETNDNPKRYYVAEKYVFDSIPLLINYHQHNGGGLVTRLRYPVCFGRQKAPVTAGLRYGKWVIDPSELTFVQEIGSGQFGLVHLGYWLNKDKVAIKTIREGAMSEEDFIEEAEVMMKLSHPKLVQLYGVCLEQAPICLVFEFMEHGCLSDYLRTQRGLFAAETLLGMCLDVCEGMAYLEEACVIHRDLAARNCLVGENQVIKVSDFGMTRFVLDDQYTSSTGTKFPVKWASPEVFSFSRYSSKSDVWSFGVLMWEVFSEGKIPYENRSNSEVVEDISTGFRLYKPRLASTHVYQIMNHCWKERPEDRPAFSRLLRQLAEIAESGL

[11] = target: ZAK (Homo sapiens, UniProt Q9NYL2)
[12] = target: MAP4K4 (Homo sapiens, UniProt O95819)
MAP4K4, sequence (O95819 whole entry): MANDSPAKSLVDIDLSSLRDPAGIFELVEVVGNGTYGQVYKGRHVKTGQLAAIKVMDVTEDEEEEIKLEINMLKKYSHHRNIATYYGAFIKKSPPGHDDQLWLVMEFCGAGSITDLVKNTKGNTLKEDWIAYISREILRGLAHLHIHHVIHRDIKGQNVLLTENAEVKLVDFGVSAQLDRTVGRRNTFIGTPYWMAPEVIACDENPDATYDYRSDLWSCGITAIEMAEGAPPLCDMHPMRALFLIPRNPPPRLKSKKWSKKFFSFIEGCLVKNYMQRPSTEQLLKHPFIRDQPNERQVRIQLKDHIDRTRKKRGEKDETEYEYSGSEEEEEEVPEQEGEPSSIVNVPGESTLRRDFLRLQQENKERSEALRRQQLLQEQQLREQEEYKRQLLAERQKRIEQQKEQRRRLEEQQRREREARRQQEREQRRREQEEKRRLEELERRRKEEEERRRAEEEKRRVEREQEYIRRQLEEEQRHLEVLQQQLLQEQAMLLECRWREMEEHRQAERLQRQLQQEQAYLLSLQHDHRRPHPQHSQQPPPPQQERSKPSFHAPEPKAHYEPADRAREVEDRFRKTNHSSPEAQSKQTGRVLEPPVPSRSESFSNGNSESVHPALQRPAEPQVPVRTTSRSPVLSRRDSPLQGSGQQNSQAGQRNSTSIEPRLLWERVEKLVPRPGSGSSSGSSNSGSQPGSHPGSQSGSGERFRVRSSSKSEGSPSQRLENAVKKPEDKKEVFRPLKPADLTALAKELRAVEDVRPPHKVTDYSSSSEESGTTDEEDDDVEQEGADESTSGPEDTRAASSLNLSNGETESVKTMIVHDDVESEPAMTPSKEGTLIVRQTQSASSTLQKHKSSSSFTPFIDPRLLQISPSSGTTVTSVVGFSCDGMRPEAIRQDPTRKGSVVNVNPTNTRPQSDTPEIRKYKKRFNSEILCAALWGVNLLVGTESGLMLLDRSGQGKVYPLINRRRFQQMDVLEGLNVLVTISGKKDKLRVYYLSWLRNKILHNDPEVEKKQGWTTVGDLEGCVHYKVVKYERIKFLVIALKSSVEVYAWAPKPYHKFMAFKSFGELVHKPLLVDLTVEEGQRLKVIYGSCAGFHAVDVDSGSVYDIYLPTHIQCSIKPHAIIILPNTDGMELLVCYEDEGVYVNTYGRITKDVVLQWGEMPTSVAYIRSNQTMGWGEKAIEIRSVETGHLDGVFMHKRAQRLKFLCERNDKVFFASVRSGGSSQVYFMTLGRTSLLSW

ZAK, sequence (Q9NYL2 whole entry): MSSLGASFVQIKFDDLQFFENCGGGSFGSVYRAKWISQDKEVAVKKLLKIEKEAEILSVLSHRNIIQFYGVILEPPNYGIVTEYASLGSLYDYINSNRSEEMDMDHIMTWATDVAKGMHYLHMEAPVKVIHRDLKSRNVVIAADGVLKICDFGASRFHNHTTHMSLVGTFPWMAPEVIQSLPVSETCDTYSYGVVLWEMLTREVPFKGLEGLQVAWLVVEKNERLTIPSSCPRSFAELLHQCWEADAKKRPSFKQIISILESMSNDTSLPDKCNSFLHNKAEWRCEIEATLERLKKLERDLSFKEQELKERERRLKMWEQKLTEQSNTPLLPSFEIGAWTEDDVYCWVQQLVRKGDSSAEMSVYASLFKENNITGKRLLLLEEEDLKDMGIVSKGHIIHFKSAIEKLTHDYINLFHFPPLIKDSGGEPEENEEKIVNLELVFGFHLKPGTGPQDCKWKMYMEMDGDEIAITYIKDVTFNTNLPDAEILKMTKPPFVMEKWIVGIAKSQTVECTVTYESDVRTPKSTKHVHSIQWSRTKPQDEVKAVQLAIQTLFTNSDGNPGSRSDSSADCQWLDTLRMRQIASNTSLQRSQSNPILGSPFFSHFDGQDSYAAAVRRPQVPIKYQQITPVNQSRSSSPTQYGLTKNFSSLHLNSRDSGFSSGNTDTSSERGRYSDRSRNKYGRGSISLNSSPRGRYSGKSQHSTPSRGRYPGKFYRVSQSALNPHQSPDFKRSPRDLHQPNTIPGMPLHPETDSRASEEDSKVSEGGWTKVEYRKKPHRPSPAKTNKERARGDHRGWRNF
MELK, sequence (Q14680 whole entry): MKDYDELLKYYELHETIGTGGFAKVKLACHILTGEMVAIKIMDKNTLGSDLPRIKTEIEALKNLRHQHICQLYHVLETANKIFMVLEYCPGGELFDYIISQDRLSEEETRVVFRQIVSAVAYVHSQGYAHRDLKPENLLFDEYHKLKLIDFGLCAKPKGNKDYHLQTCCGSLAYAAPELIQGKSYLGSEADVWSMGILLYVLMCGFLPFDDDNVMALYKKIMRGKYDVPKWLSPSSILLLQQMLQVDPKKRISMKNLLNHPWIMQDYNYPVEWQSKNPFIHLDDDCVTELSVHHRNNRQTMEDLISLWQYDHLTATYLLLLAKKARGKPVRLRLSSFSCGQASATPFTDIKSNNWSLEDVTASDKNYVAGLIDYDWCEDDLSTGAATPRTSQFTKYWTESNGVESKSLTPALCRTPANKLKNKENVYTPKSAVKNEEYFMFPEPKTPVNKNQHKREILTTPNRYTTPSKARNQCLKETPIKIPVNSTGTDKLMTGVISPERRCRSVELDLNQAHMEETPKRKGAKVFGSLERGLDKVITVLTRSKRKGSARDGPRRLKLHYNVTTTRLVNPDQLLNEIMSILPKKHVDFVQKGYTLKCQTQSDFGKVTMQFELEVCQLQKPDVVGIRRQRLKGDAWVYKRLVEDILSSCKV
WEE1, sequence (P30291 whole entry): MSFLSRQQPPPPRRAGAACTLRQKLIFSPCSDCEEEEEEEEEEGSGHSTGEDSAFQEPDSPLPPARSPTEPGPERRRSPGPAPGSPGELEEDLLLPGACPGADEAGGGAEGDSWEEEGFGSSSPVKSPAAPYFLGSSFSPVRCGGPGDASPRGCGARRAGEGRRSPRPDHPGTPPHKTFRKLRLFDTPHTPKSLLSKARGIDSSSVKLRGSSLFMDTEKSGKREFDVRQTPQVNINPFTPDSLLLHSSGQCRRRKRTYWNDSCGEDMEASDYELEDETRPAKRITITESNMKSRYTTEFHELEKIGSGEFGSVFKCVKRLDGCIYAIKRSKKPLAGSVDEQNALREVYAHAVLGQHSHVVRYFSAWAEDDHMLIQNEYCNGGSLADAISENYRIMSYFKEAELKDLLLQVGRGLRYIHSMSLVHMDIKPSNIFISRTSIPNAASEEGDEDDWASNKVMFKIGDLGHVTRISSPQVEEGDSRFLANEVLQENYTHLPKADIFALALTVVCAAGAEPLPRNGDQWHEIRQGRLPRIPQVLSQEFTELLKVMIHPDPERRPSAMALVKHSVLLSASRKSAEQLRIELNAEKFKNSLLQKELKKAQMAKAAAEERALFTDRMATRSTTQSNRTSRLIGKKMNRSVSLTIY
LYN, sequence (P07948 whole entry): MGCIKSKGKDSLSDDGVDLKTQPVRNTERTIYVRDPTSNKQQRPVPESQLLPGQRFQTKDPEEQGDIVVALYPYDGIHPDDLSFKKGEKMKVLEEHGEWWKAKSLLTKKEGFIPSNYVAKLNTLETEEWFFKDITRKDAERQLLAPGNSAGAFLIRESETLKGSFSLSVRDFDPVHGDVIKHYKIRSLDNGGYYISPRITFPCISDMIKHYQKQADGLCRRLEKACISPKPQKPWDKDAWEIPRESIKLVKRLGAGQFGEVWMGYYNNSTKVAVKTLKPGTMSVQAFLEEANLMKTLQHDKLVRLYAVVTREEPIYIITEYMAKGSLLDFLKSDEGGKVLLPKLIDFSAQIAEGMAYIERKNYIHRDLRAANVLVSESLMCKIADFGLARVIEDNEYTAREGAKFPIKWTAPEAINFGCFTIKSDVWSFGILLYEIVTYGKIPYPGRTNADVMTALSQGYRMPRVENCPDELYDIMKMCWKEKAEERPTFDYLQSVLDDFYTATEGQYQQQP
JAK1, sequence (P23458 whole entry): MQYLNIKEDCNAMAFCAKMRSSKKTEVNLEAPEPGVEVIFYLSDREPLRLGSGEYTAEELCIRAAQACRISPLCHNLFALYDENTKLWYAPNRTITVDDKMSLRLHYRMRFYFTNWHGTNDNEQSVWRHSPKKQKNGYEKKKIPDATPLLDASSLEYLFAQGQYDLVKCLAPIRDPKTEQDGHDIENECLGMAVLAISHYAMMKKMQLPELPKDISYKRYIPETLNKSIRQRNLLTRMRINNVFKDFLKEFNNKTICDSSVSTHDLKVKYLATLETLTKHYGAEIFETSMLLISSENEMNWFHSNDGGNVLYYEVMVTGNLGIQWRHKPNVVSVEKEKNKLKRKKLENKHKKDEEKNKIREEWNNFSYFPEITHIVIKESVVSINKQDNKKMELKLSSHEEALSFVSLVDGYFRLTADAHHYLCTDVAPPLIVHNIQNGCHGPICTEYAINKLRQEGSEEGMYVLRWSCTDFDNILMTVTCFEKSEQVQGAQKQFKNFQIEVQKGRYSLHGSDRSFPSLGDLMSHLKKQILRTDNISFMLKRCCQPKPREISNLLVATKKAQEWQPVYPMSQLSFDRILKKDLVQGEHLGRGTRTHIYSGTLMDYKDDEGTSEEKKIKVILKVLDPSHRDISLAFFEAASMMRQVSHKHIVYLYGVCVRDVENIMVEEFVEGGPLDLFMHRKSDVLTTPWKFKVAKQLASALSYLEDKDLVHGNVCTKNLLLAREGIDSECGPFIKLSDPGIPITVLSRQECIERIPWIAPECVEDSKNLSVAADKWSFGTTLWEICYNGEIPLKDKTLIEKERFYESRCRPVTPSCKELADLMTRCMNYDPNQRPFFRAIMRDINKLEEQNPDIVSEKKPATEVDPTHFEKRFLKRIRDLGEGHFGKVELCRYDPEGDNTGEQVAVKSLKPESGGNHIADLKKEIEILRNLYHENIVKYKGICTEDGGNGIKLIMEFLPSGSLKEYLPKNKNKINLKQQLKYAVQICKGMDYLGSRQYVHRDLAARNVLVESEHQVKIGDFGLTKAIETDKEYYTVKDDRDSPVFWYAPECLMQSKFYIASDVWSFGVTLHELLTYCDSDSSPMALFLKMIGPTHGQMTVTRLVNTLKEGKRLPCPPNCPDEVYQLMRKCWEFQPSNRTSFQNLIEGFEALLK

Compound | Kd [1] [nM] | Kd [2] [µM] | Kd [3] | Kd [4] | Kd [5] | Kd [6] | Kd [7] [nM] | Kd [8] | Kd [9] | Kd [10] [nM] | Kd [11] | Kd [12]
CN1CCN(c2ccc(Nc3ncc(C#N)c(Nc4ccccc4C(N)=O)n3)cc2)CC1.Cl [TCMDC-134116] | 654 | 0.139 | 134 nM and 167 nM | 13.1 nM and 19.5 nM | 129 nM and 125 nM | 131 nM and 139 nM | 507 | 14.3 nM and 22.8 nM | 17.3 nM and 16.9 nM | 38.7 | 0.677 µM | –
Cl.NCC1(c2nc(-c3ccc(Cl)c(O)c3)c(-c3ccncc3)[nH]2)CCCCC1 [TCMDC-141154] | – | – | 621 nM | – | 1680 nM and 1610 nM | – | – | – | – | – | 6.13 µM and 3.63 µM | 850 nM and 539 nM
CN(C)CC(O)COc1ccc(Nc2ncc([N+](=O)[O-])c(Nc3ccccc3O)n2)cc1.O=C(O)C(F)(F)F (stereo not drawn) [TCMDC-141399] | 1180 | 9.02 | – | 272 nM and 346 nM | – | 1940 nM and 2040 nM | 1640 | 1500 nM | 209 nM | 470 | – | 1020 nM and 680 nM
